These results are taken from PMC9534826 (Journal of Applied Glycoscience, 2022).

Structures are written as SMILES.

This test relates to PxXyl43A. As to the kind of experiment: p-nitrophenol release, absorbance at […] nm. It counts as biochemical, Paenibacillus xylaniclasticus. The conditions noted are these: pH 7.0, 50 mM potassium phosphate, 54 °C, 1.5 min, 1.8 to 9.0 mM pNPX.

In general, Km refers to the concentration of substrate that gives half-maximal velocity. Turning to `O=[N+]([O-])c1ccc(O[C@@H]2OC[C@@H](O)[C@H](O)[C@H]2O)cc1` [pNPX], the Michaelis-Menten constant (Km) was 1200 µM.
